Holding throughout (assay): combination Emax (second highest fraction inhibited in the dose matrix, 72 h); higher = more inhibition; extreme values may be limits of the assay
Test [1] has as its system MDST8 (Colorectal Carcinoma). The method in brief: (§1)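 After 24 hours at 37°C and 5% CO2 in 1536-well plates, cells in DMEM/F12 or RPMI plus 10% FBS received two-drug dose matrices for 72 hours. Viability came from CellTiter-Glo 2.0 luminescence and was scaled as inhibition, anchored at 0 by vehicle wells and at 1 by blank wells. Combination Emax is taken as the second-highest inhibition in the matrix, and Bliss excess as the observed combination effect less EA + EB − EA·EB, with EA and EB the single-agent effects.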

Test [2] has as its system TT (Thyroid Gland Carcinoma). The method, boiled down: as §1
For a further test, the system named is A498 (Kidney Carcinoma). The method in brief: as §1
A further test deals with Hs-445 (Non-Cancerous). The method in brief: as §1
The subject of test [3] is A3-KAW (B-Cell Non-Hodgkin's Lymphoma). The method, boiled down: as §1
Test [4] has as its system COLO-824 (Breast Carcinoma). The method, boiled down:
as §1

The subject of test [5] is NCI-H1666 (Lung Adenocarcinoma). The method in brief: as §1
For another test, the system named is 8-MG-BA (Glioblastoma). The method, boiled down:
as §1

Test [6] relates to CCK-81 (Colorectal Carcinoma). The method, boiled down:
as §1

Test [7] has as its system SK-MG-1 (Low Grade Glioma). The method, boiled down:
as §1

The subject of test [8] is CAL-29 (Bladder Carcinoma). The method in brief:
as §1

Test [9] relates to VCaP (Prostate Carcinoma). The method in brief:
as §1

The next test has as its system GI-ME-N (Neuroblastoma). The method, boiled down:
as §1

In another test the test system is ARH-77 (Non-Cancerous). The method, boiled down: as §1
The subject of another test is NCI-H2591 (Mesothelioma). The method in brief: as §1
Test [10] concerns PANC-10-05 (Pancreatic Carcinoma). The method, boiled down: as §1
The test system of a further test is IGR-37 (Melanoma). The method, boiled down:
as §1

Test [11] relates to JSC-1 (B-Cell Non-Hodgkin's Lymphoma). The method, boiled down:
as §1

In test [12] the test system is NCI-H1581 (Non-Small Cell Lung Carcinoma). The method, boiled down:
as §1

Another test deals with NY (Osteosarcoma). The method in brief: as §1

SMILES strings stand for the structures.

Consider `COc1nnc2ccc(N3CCC(c4ccc(OCCN5CCN(C)C(=O)[C@H]5C)cc4)CC3)nn12` [AZD5153] + CC1(C)CCC(CN2CCN(c3ccc(C(=O)NS(=O)(=O)c4ccc(NCC5CCOCC5)c([N+](=O)[O-])c4)c(Oc4cnc5[nH]ccc5c4)c3)CC2)=C(c2ccc(Cl)cc2)C1 [Venetoclax] (first compound max 1 µM, 7x7, partner max 1 µM), for which the “combination Emax” value in test [1] was 0.324; in test [2], 0.596; in the test with A498 (Kidney Carcinoma), 0.439; in the test on Hs-445 (Non-Cancerous), 0.724; in test [3], 1; in test [4], 0.881. The “combination Emax” value in test [5] turned out to be 0.439; with 8-MG-BA (Glioblastoma), 0.707; in test [6], 0.848; in test [7], 0.425; in test [8] it was 0.327; in test [9], 0.777. Besides, the “combination Emax” value with GI-ME-N (Neuroblastoma) amounted to 0.285; in the test on ARH-77 (Non-Cancerous), 0.861; with NCI-H2591 (Mesothelioma) it was 0.331; in test [10] it was 0.474; in the test on IGR-37 (Melanoma), 0.65; in test [11], 0.769. The “combination Emax” value in test [12] was determined as 0.469; in the test with NY (Osteosarcoma) it was 0.542.

As to `COc1nnc2ccc(N3CCC(c4ccc(OCCN5CCN(C)C(=O)[C@H]5C)cc4)CC3)nn12` [AZD5153] + CCN(CCO)CCCOc1ccc2c(Nc3cc(CC(=O)Nc4cccc(F)c4)[nH]n3)ncnc2c1 [AZD2811] (first compound max 1 µM, 7x7, partner max 1 µM), the “combination Emax” value in [1] came out at 0.466; in [2], 0.692; with A498 (Kidney Carcinoma), 0.459; with Hs-445 (Non-Cancerous) it was 0.509; in [3], 1; in test [4] it was 0.845. The “combination Emax” value in test [5] is 0.432; in the test with 8-MG-BA (Glioblastoma) it was 0.74; in test [6], 0.858; in test [7], 0.566; in test [8], 0.372; in [9] it was 0.789. The “combination Emax” value with GI-ME-N (Neuroblastoma) came out at 0.341; in the test with ARH-77 (Non-Cancerous), 0.82; with NCI-H2591 (Mesothelioma), 0.429; in test [10] it was 0.554; in the test with IGR-37 (Melanoma), 0.597; in test [11] it was 0.775. Further, the entries for the “combination Emax” value (in test [12]; with NY (Osteosarcoma)) were 0.437 and 0.517, respectively.

In the case of `COc1nnc2ccc(N3CCC(c4ccc(OCCN5CCN(C)C(=O)[C@H]5C)cc4)CC3)nn12` [AZD5153] + C[C@@H]1COCCN1C2=NC(=NC(=C2)C3(CC3)[S@](=N)(=O)C)C4=C5C=CNC5=NC=C4 [AZD6738] (first compound max 1 µM, 7x7, partner max 10 µM), the “combination Emax” value is 0.812 in test [1]; 0.629 in test [2]; 0.65 with A498 (Kidney Carcinoma); 0.727 with Hs-445 (Non-Cancerous); 1 in [3]; 0.869 in test [4]. The “combination Emax” value amounted to 0.493 in [5]; 0.837 in the test on 8-MG-BA (Glioblastoma); 0.95 in test [6]; 0.595 in test [7]; 0.7 in test [8]; 0.839 in test [9]. Moreover, the “combination Emax” value in the test on GI-ME-N (Neuroblastoma) was found to be 0.464; with ARH-77 (Non-Cancerous), 0.991; in the test with NCI-H2591 (Mesothelioma), 0.558; in test [10] it was 0.682; in the test with IGR-37 (Melanoma), 0.757; in test [11] it was 0.901. The “combination Emax” value is 0.714 in [12] and 0.627 in the test with NY (Osteosarcoma).

In the case of `COc1nnc2ccc(N3CCC(c4ccc(OCCN5CCN(C)C(=O)[C@H]5C)cc4)CC3)nn12` [AZD5153] + Cc1c2c(nn1C)CSCc1cc(n(C)n1)CSc1cc(c3ccccc3c1)OCCCc1c(C(=O)O)n(C)c3c-2c(Cl)ccc13 [AZD5991] (first compound max 1 µM, 7x7, partner max 1 µM), the “combination Emax” value in test [1] turned out to be 0.355; in test [2], 0.623; in the test with A498 (Kidney Carcinoma), 0.529; in the test on Hs-445 (Non-Cancerous), 0.618; in test [3], 1; in test [4] it was 0.724. Also, the “combination Emax” value in test [5] is 0.423; in the test on 8-MG-BA (Glioblastoma), 0.94; in test [6], 0.916; in [7], 0.425; in test [8], 0.355; in test [9], 0.988. The “combination Emax” value was 0.377 in the test on GI-ME-N (Neuroblastoma); 0.831 with ARH-77 (Non-Cancerous); 0.368 in the test with NCI-H2591 (Mesothelioma); 0.515 in test [10]; 0.949 with IGR-37 (Melanoma); 1 in test [11]. The “combination Emax” value amounted to 0.983 in [12] and 0.688 in the test with NY (Osteosarcoma).

For `COc1nnc2ccc(N3CCC(c4ccc(OCCN5CCN(C)C(=O)[C@H]5C)cc4)CC3)nn12` [AZD5153] + Cn1cnc2c(F)c(Nc3ccc(Br)cc3Cl)c(C(=O)NOCCO)cc21 [Selumetinib] (first compound max 1 µM, 7x7, partner max 10 µM), the “combination Emax” value in test [1] came out at 0.826; in test [2], 0.524; in the test on A498 (Kidney Carcinoma), 0.867; in the test on Hs-445 (Non-Cancerous), 0.555; in test [3] it was 1; in test [4], 0.694. Further, the “combination Emax” value in test [5] was found to be 0.558; in the test on 8-MG-BA (Glioblastoma) it was 0.796; in [6] it was 1; in test [7] it was 0.467; in test [8], 0.595; in [9], 0.797. The “combination Emax” value was 0.349 in the test on GI-ME-N (Neuroblastoma); 0.839 with ARH-77 (Non-Cancerous); 0.629 in the test with NCI-H2591 (Mesothelioma); 0.633 in test [10]; 1 in the test on IGR-37 (Melanoma); 0.805 in test [11]. Also, the “combination Emax” value is 0.599 in test [12] and 0.52 in the test on NY (Osteosarcoma).

Consider `Cc1c2c(nn1C)CSCc1cc(n(C)n1)CSc1cc(c3ccccc3c1)OCCCc1c(C(=O)O)n(C)c3c-2c(Cl)ccc13` [AZD5991] + C1CN(CCC1(C(=O)N[C@@H](CCO)C2=CC=C(C=C2)Cl)N)C3=NC=NC4=C3C=CN4 [Capivasertib] (first compound max 1 µM, 7x7, partner max 3 µM), for which the “combination Emax” value in test [1] is 0.269; in test [2], 0.366; with A498 (Kidney Carcinoma), 0.561; in the test on Hs-445 (Non-Cancerous) it was 0.988; in test [3], 1; in test [4] it was 0.601. The “combination Emax” value in [5] is 0.274; in the test on 8-MG-BA (Glioblastoma) it was 0.85; in [6] it was 0.918; in test [7] it was 0.444; in [8], 0.342; in test [9] it was 1. Moreover, the “combination Emax” value was found to be 0.27 in the test with GI-ME-N (Neuroblastoma); 0.915 with ARH-77 (Non-Cancerous); 0.191 in the test on NCI-H2591 (Mesothelioma); 0.357 in test [10]; 0.207 in the test with IGR-37 (Melanoma); 1 in test [11]. The “combination Emax” value in test [12] came to 1; in the test with NY (Osteosarcoma), 0.492.

As for `Cc1c2c(nn1C)CSCc1cc(n(C)n1)CSc1cc(c3ccccc3c1)OCCCc1c(C(=O)O)n(C)c3c-2c(Cl)ccc13` [AZD5991] + C=CCn1c(=O)c2cnc(Nc3ccc(N4CCN(C)CC4)cc3)nc2n1-c1cccc(C(C)(C)O)n1 [AZD1775] (first compound max 1 µM, partner max 1 µM), the “combination Emax” value in [1] was determined as 0.597; in test [2], 0.428; with A498 (Kidney Carcinoma), 0.602; in the test on Hs-445 (Non-Cancerous), 1; in test [3], 1; in test [4] it was 0.667. For the same molecule, the “combination Emax” value in test [5] amounted to 0.338; in the test with 8-MG-BA (Glioblastoma), 0.906; in test [6], 0.928; in test [7], 0.783; in test [8], 0.919; in test [9], 0.916. In addition, the “combination Emax” value in the test with GI-ME-N (Neuroblastoma) came out at 0.532; in the test on ARH-77 (Non-Cancerous), 0.995; with NCI-H2591 (Mesothelioma), 0.266; in test [10] it was 0.573; in the test with IGR-37 (Melanoma), 0.768; in test [11], 1. Moreover, the “combination Emax” value in test [12] is 1; in the test on NY (Osteosarcoma) it was 0.747.

Source of the values: the supplement of paper PMC11061612.
